{"source": "patent US20010014671A1", "about": "“Treatment of osteoarthritis by administering poly-N-acetyl-D-glucosamine” (Lescarden, Inc., priority 1996, published 2001)", "key": {"[1]": {"experiment": "Serum NAG and glucosamine levels after oral ingestion of NAG or poly-NAG in healthy subjects (crossover, HPLC analysis)", "type": "in vivo, human", "text": "Ten normal, healthy subjects (five men and five women ages 36-50) were randomly divided into two groups (designated as A and B). On Day-1 a fasting blood sample was collected from each patient. Following this, group A orally ingested 1.0 gram of NAG and group B ingested 1.0 gram of poly-NAG. On Day-2 the subjects again ingested one gram of the appropriate test substance before breakfast. On the third day a fasting blood sample was taken at time T=0. Subsequently, they consumed the final 1.0 gram of the appropriate test substance, and nonfasting blood samples were taken at 1, 2, 4, and 8 hours. Fasting blood samples were taken at 24 and 48 hours thereafter. […] On Day-8, after a fasting blood sampling, the groups were switched (i.e., group A took poly-NAG while group B consumed NAG) and the same procedure as shown above was repeated.\nThe data were analyzed using analytical HPLC procedure based on published methods for amino sugar analysis. The chromatographic system consisted of a Hewlett-Packard 1090M Liquid Chromatograph/Work Station equipped with a Diode Array Detector. Separation was by isocratic elution at 40° C. from a 300×7.8 mm Rezex Organic Acid Column (Phenomenex; N>75000 P/m) with 0.005N H2SO4 at a flow rate of 0.6 ml/min. The analytical conditions had been developed for resolution of the aminosugar/acetylated aminosugar components of physiological fluids, and the diode array detector was optimized at 193 nm for maximum sensitivity and minimum interference. The system was calibrated with standards before, during and after the study to assure there were no significant changes due to wear and tear or aging of the system. The chromatographic data were transferred to a spreadsheet and statistically tested with ANOVA (Single Factor, Two-Factor without Replication, Two-Factor with Replication) and paired T-tests."}, "[2]": {"conditions": "human trials, cited from earlier work"}, "[3]": {"conditions": "cited from earlier work"}}}
{"compound": "CC(=O)N[C@H]1C(O)O[C@H](CO)[C@@H](O)[C@@H]1O", "note": "(stereo partly drawn) [NAG, N-acetyl-D-glucosamine]", "values": [{"measurement": "subjects showing decreased serum NAG levels", "setting": "[1]; 24 hours following cessation of ingestion, both groups together (4/20)", "value": 20, "unit": "%"}, {"measurement": "concentration of NAG in serum, Avg", "setting": "[1]; Pre (pretest fasting sample before ingestion), 1.0 g per day oral", "value": "10.3 nanomoles per ml of serum"}, {"measurement": "subjects with increased serum NAG concentrations", "setting": "[1]; T=0 compared with pretest values, fraction of 20 subject-periods", "value": "6/20"}, {"measurement": "subjects showing an increase in serum NAG", "setting": "[1]; T=1 hour compared with pretest value, fraction of 20 subject-periods", "value": "8/20"}, {"measurement": "concentration at 0 h", "setting": "[1]; both sexes, human, serum, T0, third day fasting, before final 1.0 g oral dose", "value": 15.4, "unit": "µM"}, {"measurement": "concentration at 1 h", "setting": "[1]; both sexes, human, serum, T1, 1 hour after final 1.0 g oral dose, nonfasting", "value": 18.2, "unit": "µM"}, {"measurement": "concentration at 2 h", "setting": "[1]; both sexes, human, serum, T2, 2 hours after final 1.0 g oral dose, nonfasting", "value": 21, "unit": "µM"}, {"measurement": "concentration at 4 h", "setting": "[1]; both sexes, human, serum, T4, 4 hours after final 1.0 g oral dose, nonfasting", "value": 22.9, "unit": "µM"}, {"measurement": "concentration at 8 h", "setting": "[1]; both sexes, human, serum, T8, 8 hours after final 1.0 g oral dose, nonfasting", "value": 14.6, "unit": "µM"}, {"measurement": "concentration at 24 h", "setting": "[1]; both sexes, human, serum, T24, 24 hours after final 1.0 g oral dose, fasting", "value": 13.6, "unit": "µM"}, {"measurement": "concentration at 48 h", "setting": "[1]; both sexes, human, serum, T48, 48 hours after final 1.0 g oral dose, fasting", "value": 12.7, "unit": "µM"}]}
{"compound": "N[C@H]1C(O)O[C@H](CO)[C@@H](O)[C@@H]1O.O=S(=O)(O)O", "note": "(stereo partly shown) [glucosamine sulfate]", "values": [{"measurement": "effect on symptoms of osteoarthritis", "setting": "[2]; pain, joint tenderness, swelling and mobility", "value": "significant improvement in the symptoms of pain, joint tenderness, swelling and mobility"}, {"measurement": "adverse side effects or undesirable drug interactions", "setting": "[2]", "value": "not to have any adverse side effects or undesirable interactions with other drugs"}]}
{"compound": "N[C@H]1C(O)O[C@H](CO)[C@@H](O)[C@@H]1O", "note": "(stereo partly shown) [glucosamine]", "values": [{"measurement": "excreted in the feces", "setting": "[3]; dog, in vivo", "value": 1.7, "unit": "%"}, {"measurement": "time of peak protein incorporation of glucosamine", "setting": "[3]; incorporation into alpha and beta globulins", "value": 8, "unit": "h"}, {"measurement": "excreted in urine", "setting": "[3]; mainly as glucosamine", "value": 34, "unit": "%"}]}
